Laboratory results: ChEMBL document CHEMBL2384934, “Discovery of 3-phenyl-1H-5-pyrazolylamine derivatives containing a urea pharmacophore as potent and efficacious inhibitors of FMS-like tyrosine kinase-3 (FLT3)” (Bioorg Med Chem, 2013)

Tests used:
[1] = target: Proto-oncogene tyrosine-protein kinase receptor Ret (Homo sapiens) (UniProt P07949); experiment: Inhibition of RET (unknown origin) at 1 uM
[2] = target: Proto-oncogene tyrosine-protein kinase Src (Homo sapiens) (UniProt P12931); experiment: Inhibition of SRC (unknown origin) at 1 uM
Sequence of Proto-oncogene tyrosine-protein kinase Src (Homo sapiens) (P12931 2-536 limits assumed): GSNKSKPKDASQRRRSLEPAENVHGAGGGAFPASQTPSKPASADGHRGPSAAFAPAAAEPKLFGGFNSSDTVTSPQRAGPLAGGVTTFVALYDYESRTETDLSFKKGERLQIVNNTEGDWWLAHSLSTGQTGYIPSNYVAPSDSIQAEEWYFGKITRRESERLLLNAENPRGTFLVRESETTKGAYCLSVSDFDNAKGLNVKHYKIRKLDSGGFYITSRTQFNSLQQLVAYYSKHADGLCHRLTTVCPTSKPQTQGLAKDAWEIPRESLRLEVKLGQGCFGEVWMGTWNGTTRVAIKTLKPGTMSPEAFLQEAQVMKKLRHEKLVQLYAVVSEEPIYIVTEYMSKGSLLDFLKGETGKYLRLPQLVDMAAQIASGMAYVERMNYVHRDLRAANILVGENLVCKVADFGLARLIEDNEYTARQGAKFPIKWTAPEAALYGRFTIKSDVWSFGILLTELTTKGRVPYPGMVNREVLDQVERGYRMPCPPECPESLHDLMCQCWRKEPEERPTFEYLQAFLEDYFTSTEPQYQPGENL

[3] = cells; settings: Homo sapiens, RS4-11, 72 h
Description: Cytotoxicity against human RS4:11 cells harboring wild type FLT3 after 72 hrs by MTS assay

Sequence of Proto-oncogene tyrosine-protein kinase receptor Ret (Homo sapiens) (P07949 whole entry): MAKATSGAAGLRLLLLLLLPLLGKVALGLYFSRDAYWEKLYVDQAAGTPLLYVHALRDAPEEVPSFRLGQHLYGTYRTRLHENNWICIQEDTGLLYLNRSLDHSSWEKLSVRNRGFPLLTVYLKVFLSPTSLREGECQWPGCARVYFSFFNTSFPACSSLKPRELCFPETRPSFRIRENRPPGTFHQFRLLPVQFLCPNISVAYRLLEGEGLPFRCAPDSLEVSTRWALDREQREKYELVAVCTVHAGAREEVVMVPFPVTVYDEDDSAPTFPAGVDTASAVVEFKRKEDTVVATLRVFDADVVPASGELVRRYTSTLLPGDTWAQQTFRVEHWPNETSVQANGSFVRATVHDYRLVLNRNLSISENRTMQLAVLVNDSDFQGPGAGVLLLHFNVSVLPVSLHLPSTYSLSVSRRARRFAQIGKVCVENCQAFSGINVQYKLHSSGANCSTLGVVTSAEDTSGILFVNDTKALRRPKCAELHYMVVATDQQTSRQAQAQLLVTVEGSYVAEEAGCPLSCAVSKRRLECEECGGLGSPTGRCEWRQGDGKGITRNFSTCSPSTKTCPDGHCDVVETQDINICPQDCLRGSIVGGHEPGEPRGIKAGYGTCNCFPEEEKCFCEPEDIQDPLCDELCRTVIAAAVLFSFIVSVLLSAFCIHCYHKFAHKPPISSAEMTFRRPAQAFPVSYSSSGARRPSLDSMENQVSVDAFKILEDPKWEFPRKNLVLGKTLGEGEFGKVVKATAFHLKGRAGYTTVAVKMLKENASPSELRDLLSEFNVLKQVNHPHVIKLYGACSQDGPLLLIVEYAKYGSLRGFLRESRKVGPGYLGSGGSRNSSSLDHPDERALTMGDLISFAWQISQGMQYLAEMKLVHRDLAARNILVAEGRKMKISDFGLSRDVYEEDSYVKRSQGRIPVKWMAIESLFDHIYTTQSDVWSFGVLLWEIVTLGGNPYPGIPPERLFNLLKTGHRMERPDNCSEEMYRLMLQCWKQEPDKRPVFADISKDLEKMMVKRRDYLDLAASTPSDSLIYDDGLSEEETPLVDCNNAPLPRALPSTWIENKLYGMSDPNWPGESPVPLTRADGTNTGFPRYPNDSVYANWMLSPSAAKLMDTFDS

SMILES: CC(C)(C)c1cc(NC(=O)NCc2ccc(-c3cc(NC(=O)c4ccc(OCCN5CCOCC5)cc4)[nH]n3)cc2)no1
- inhibition [1]: 97%
- inhibition [2]: 35%
- GI50 [3]: 900 nM
